From PMC8602723, “Comparative assessment of antimicrobial, antiradical and cytotoxic activities of cannabidiol and its propyl analogue cannabidivarin” (Scientific Reports, 2021)
Read-outs that look alike come from different tables or passages of the source.

Key:
Hep G2 cells = assay: BrdU-ELISA (DNA synthesis inhibition); format: cell-based, human; conditions: for IC50: Homo sapiens, read-out: IC50 BrdU-ELISA
Method: (§1) BrdU-ELISA was performed according to the protocol described by Lehmann and collaborators, and the results were used to evaluate the inhibition of DNA synthesis. A total of 1 × 10^4 cells/well were seeded in 100 µL of fresh medium into 96-well plates in triplicate at 37 °C in a humidified atmosphere of 95% air plus 5% CO2 for 24 h. Then, the medium was removed and replaced with 200 µL of medium with the same concentrations of CBD and CBDV that had been used in the previous test. In all experiments, blanks (wells with medium and without cells), negative controls (with only medium) and solvent controls (2.5% methanol) were included. The plates were incubated at 37 °C for 72 h. Then, 20 µL of 100 µM BrdU labelling solution was added to each well and incubated for 2 h at 37 °C. After removing the labelling solution, 200 µl of DNA fixing/denaturing solution was added to each well and incubated for 30 min at room temperature. After its discharge, 100 µL of the anti-BrdU-POD antibody solution [0.075 U/mL] was added to each well and incubated for 90 min at room temperature. After several washing steps with 1X PBS (200–300 µL/well), 100 µl of tetramethylbenzidine (TMB) was added to each well and incubated for 20–30 min (sufficient time for the colour change). The incorporation of BrdU into DNA was quantified spectrophotometrically at 370 nm. […] The mean absorbance of the control cells represented 100% cell proliferation, and the mean absorbance of the treated cells was related to the control values to determine cell sensitivity. Inhibition (%) of DNA synthesis/cell viability was determined as follows:2 IC%=1-OD370sample/OD370negativecontrol·100
(§2) IC50 values (representing the median concentration at which DNA synthesis and cell viability were reduced by 50%) were calculated.
(§3) All results from five independent experiments are expressed as the IC50 or EC50 as determined by analysis with Prism 5 software (GraphPad Inc., San Diego, CA, USA) and nonlinear regression (log agonist vs. normalized response-variable slope) with a 95% confidence range. Lowest observed adverse effect concentrations (LOAECs) were calculated by one-way ANOVA and Dunnett’s comparison test. Differences compared to the controls were considered significant as follows: *p < 0.05, **p < 0.001 and ***p < 0.0001.

TelCOFS02MA cells [1] = assay: BrdU-ELISA (DNA synthesis inhibition); format: cell-based, human; conditions: for IC50: Homo sapiens, read-out: IC50 BrdU-ELISA
Method: as §1, §2, §3

Caco-2 cells [2] = assay: BrdU-ELISA (DNA synthesis inhibition); format: cell-based, human; conditions: for IC50: Homo sapiens, read-out: IC50 BrdU-ELISA
Method: as §1, §2, §3

[3] = DPPH assay (radical scavenging); conditions: for DPPH scavenging capacity less than the capacity of Trolox: compared with Trolox
Method: DPPH assay was performed following the protocol described by Brand-Williams et al.[69]. DPPH^⋅ was dissolved in methanol, generating a purple solution (101.43 µM). […] Furthermore, 940 μL of methanol and 60 μL of distilled water were used for the blank. Trolox was used as the standard control, and methanol was used as the solvent control.
The results were expressed as the median effective concentration of sample able to reduce the initial absorbance of the DPPH radical (EC50). Furthermore, TEAC values were calculated in line with Shimamura end colleagues[68] as previously reported.
as §3

TelCOFS02MA cells [4] = assay: MTT assay (mitochondrial metabolism); format: cell-based, human; conditions: for IC50: Homo sapiens, read-out: IC50 MTT assay
From the text: (§4) MTT assay is the most commonly used method for high-throughput identification of the antiproliferative effects of compounds on cultured cells and is indirectly correlated with mitochondria-dependent apoptosis progression[59]–[61]. The production of reducing equivalents such as NADH in metabolically active cells is an indicator of “cell redox activity”, indirectly reflecting the number of viable cells[60],[61] and the mitochondrial metabolic rate in cells[62],[63].
(§5) A549, Caco-2, HepG2 and TelCOFS02MA cells (1 × 10^4 cells/well), and MDA-MB-231 cells (0.5 × 10^4 cells/well) were seeded in 100 µL of fresh medium into 96-well plates (TC-Plate 96 wells, Sarstedt, Verona, Italy) in quadruplicate for 24 h at 37 °C in a humidified atmosphere of 95% air plus 5% CO2. Then, the medium was removed and replaced with 200 µL of media with different concentrations of CBD (5–80 µM, dilution factor [DF] equal to 2) and CBDV (5.5–88 µM, DF = 2) chosen on the basis of range-finding tests (0.5, 5, and 50 mg/L). We chose 1.56–25 mg/L to be tested and, to make easier the comparison between the two cannabinoids activities, the concentrations were reported in [μM]. In all experiments, negative controls (wells containing cells exposed only to the medium) and solvent controls (wells containing cells exposed to 2.5% methanol) were included. The plates were incubated at 37 °C for three exposure times: 24, 48 and 72 h (different plates were prepared for each specific time point). Then, MTT solution (5 mg/mL) was added to each well, and the plates were re-incubated for 4 h at 37 °C. The culture medium was removed, and 2-propanol was used to dissolve formazan crystals. The absorbance of formazan was measured spectrophotometrically at 590 nm using an automated microplate reader (Synergy H1, Biotek, Winooski, USA). The results are reported as the percentages of cells with inhibited proliferation, as determined by the link between the inhibition of mitochondrial metabolic activity and proliferation. The results were calculated with the following formula:1 IC%=1-OD590sample/OD590negativecontrol·100
(§6) Furthermore, IC50 values (concentrations of the sample used to obtain an inhibition of 50% of cell growth/metabolic activity) were calculated.
as §3

MDA-MB-231 cells = assay: MTT assay (mitochondrial metabolism); format: cell-based, human; conditions: for IC50: Homo sapiens, read-out: IC50 MTT assay
From the text: as §4, §5, §6, §3

Caco-2 cells [5] = assay: MTT assay (mitochondrial metabolism); format: cell-based, human; conditions: for LOAEC MTT assay: Caco-2, same value after each exposure time (24, 48, 72 h); for IC50: Homo sapiens, read-out: IC50 MTT assay
From the text: as §4, §5, §6, §3

[6] = TelCOFS02MA, 72 h exposure, 95% confidence interval in brackets
[7] = Caco-2, 72 h exposure, 95% confidence interval in brackets

Work on `C=C(C)[C@@H]1CCC(C)=C[C@H]1c1c(O)cc(CCCCC)cc1O` [CBD, Cannabidiol] yielded an IC50 (Hep G2 cells; HepG2, Hep G2, 72 h exposure, 95% confidence interval in brackets) of 39.2 µM, an IC50 (TelCOFS02MA cells [1]; [6]) of 49.1 µM and an IC50 (Caco-2 cells [2]; [7]) of 33.3 µM. The “DPPH scavenging capacity less than the capacity of Trolox” value [3] was 90%, the IC50 (TelCOFS02MA cells [4]; [6]) was 31.9 µM and the “LOAEC MTT assay” value (TelCOFS02MA cells [4]; TelCOFS02MA, same value for the entire treatment period (24, 48, 72 h)) was 20 µM. The IC50 (MDA-MB-231 cells; MDA-MB-231, 72 h exposure, 95% confidence interval in brackets) was 25.8 µM, the “LOAEC MTT assay” value (MDA-MB-231 cells; MDA-MB-231, 24 h) was 20 µM and the “LOAEC MTT assay” value (MDA-MB-231 cells; MDA-MB-231, 48 h) was 10 µM. For the same molecule, the “LOAEC MTT assay” value (Caco-2 cells [5]) was 20 µM and the IC50 (Caco-2 cells [5]; [7]) was 35.2 µM.
In the case of `C=C(C)[C@@H]1CCC(C)=C[C@H]1c1c(O)cc(CCC)cc1O` [CBDV, cannabidivarin], the “LOAEC BrdU-ELISA” value (Hep G2 cells; Hep G2, 72 h) is reported as 22 µM, the IC50 (Hep G2 cells; HepG2, 72 h) is reported as 46.7 µM and the IC50 (TelCOFS02MA cells [1]; 72 h) is reported as 69.1 µM. The “LOAEC BrdU-ELISA” value (TelCOFS02MA cells [1]; TelCOFS02MA, 72 h) was 44 µM, the “LOAEC BrdU-ELISA” value (Caco-2 cells [2]; Caco-2, 72 h) was 22 µM and the IC50 (Caco-2 cells [2]; Caco-2, 72 h) was 40.4 µM. For the same molecule, the “TEAC (Trolox equivalent antioxidant capacity), DPPH” value ([3]; EC50 Trolox/EC50 sample) was 0.09, the “DPPH scavenging capacity less than the capacity of Trolox” value [3] was 91% and the IC50 (TelCOFS02MA cells [4]; 72 h) was 42.3 µM. For the same molecule, the “LOAEC MTT assay” value (TelCOFS02MA cells [4]; TelCOFS02MA, 24 h) was 88 µM, the “LOAEC MTT assay” value (TelCOFS02MA cells [4]; TelCOFS02MA, 48 h) was 44 µM and the “LOAEC MTT assay” value (TelCOFS02MA cells [4]; TelCOFS02MA, 72 h) was 11 µM. For the same molecule, the IC50 (MDA-MB-231 cells; MDA-MB-231, 72 h) was 38.1 µM, the “LOAEC MTT assay” value (MDA-MB-231 cells; MDA-MB-231, 24 h) was 44 µM and the “LOAEC MTT assay” value (MDA-MB-231 cells; MDA-MB-231, 48 h) was 22 µM. The “LOAEC MTT assay” value (Caco-2 cells [5]) was 44 µM and the IC50 (Caco-2 cells [5]; Caco-2, 72 h) was 46 µM.
